Literature values, collected in PubChem BioAssay AID1259409 (Chemical Carcinogenesis Research Information System (CCRIS), 2018).

Test system: rodent chemically induced tumor inhibition, incidence and multiplicity
Experiment: CCRIS tumor inhibitor studies

CCCCCCCC/C=C\CCCCCCCC(=O)O
tumour outcome (control, treated, inhibition, significance) (Carcinogen: 1,2-DIMETHYLHYDRAZINE, 540-73-8, Dose [Inhibitor]: 0, 1 MG/D FOR 25 WK BEGINNING 3 WK PRIOR TO CARCINOGEN (STUDY DURATION: 25 WK), Route [Inhibitor]: ORAL, Species: RAT, Strain/Sex: CD-1/MALE, Target Tissue: Type of Lesion: COLON: TUMOR, Dose [Carcinogen]: 15 MG/KG 1/WK FOR 16 WK): 17/22 (77%), 19/22 (86%), -12%, not significant | tumour outcome (control, treated, inhibition, significance) (Carcinogen: BENZO[A]PYRENE, 50-32-8, Dose [Inhibitor]: 25 MG IN 0.1 ML ACETONE 3/WK ADMINISTERED SIMULTANEOUSLY WITH CARCINOGEN FOR DURATION OF STUDY (STUDY DURATION: 440 D), Route [Inhibitor]: DERMAL, Species: MOUSE, Strain/Sex: ICR/FEMALE, Target Tissue: Type of Lesion: SKIN: PAPILLOMA, Dose [Carcinogen]: 5 UG IN 0.1 ML ACETONE 3/WK FOR DURATION OF STUDY, Promoter: NONE USED): 16/50 (32%), 0/50 (0%), 100%, not calculated | tumour outcome (control, treated, inhibition, significance) (Carcinogen: BENZO[A]PYRENE, 50-32-8, Dose [Inhibitor]: 25 MG IN 0.1 ML ACETONE 3/WK ADMINISTERED SIMULTANEOUSLY WITH CARCINOGEN FOR DURATION OF STUDY (STUDY DURATION: 440 D), Route [Inhibitor]: DERMAL, Species: MOUSE, Strain/Sex: ICR/FEMALE, Target Tissue: Type of Lesion: SKIN: SQUAMOUS CARCINOMA, Dose [Carcinogen]: 5 UG IN 0.1 ML ACETONE 3/WK FOR DURATION OF STUDY, Promoter: NONE USED): 12/50 (24%), 0/50 (0%), 100%, not calculated
